Where two headings read alike, the source gives them in different places.
Key:
CYP450 2C9 [1] = biological target: T1, CYP450 2C9 (Homo sapiens, UniProt P11712)
[2] = biological target: T2, aryl hydrocarbon receptor (AhR) (Mus musculus, UniProt P30561); assay: cell-based
T2 sequence (P30561 10-848): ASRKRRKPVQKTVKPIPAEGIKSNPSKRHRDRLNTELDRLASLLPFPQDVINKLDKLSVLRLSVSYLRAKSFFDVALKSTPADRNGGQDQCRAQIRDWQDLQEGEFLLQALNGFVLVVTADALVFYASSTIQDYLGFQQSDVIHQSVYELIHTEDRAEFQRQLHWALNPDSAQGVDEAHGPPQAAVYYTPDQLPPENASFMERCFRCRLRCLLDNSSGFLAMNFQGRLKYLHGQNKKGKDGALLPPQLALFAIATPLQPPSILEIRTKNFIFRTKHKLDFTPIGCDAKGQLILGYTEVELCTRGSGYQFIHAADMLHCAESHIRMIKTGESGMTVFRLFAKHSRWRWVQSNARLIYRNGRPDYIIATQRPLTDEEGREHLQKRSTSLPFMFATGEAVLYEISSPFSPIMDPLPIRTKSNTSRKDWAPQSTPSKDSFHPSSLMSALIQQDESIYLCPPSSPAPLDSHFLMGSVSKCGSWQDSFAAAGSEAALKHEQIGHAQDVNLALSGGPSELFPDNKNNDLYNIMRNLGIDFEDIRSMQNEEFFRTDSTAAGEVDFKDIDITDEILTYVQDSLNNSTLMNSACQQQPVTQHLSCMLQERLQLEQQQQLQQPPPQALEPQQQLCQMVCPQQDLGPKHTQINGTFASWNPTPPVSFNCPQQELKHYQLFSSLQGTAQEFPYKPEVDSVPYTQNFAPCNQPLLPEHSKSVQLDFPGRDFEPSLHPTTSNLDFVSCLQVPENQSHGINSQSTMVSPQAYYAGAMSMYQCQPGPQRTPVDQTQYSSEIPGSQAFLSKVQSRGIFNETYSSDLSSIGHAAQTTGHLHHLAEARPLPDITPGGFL

[3] = biological target: T3, human carboxylesterase CES3 (Homo sapiens, UniProt Q6UWW8); assay: human CES3 enzyme inhibition assay (CMNA substrate); format: biochemical
T3 construct: made in house; host or cells: baculovirus-insect cells
T3 sequence (Q6UWW8 27-571): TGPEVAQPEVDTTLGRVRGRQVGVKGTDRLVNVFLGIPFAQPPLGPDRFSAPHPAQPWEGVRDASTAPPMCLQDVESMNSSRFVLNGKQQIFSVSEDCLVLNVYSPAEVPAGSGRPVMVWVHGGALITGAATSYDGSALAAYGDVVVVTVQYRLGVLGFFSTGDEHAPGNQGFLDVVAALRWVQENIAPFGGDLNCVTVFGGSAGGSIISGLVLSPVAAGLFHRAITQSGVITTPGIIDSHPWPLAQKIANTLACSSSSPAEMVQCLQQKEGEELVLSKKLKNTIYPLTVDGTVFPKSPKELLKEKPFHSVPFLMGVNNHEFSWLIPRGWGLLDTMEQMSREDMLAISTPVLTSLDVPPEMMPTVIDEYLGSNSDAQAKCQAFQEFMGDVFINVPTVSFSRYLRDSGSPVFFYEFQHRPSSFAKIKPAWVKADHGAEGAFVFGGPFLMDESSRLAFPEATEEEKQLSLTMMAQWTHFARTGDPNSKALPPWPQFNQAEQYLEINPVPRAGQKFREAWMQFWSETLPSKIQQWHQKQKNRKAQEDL
Description: (§1) Recombinant human soluble epoxide hydrolase (sEH) was produced in a baculovirus expression system ([Beetham et al. 1993]) and purified by affinity chromatography ([Wixtrom et al. 1988]). […] The CESs were partially purified as previously described ([Nishi et al. 2006]), whereas microsomal preparations were used for FAAH and PON2 ([Huang et al. 2007]). Human liver cytosol and microsome extracts were obtained from BD Biosciences (San Jose, CA). Protein concentration was quantified using the Pierce BCA (bicinchoninic acid) assay (Pierce, Rockford, IL) using bovine serum albumin (BSA) as the calibrating standard.
(§2) Although the conditions for each enzyme assay were different (for details, see Table 1), the enzymatic assays were all run in a similar format. Enzymes were used at a concentration that results in linear generation of product with increasing time and protein concentration, as well as yielding a signal that was 3–20 times greater than the background. […]
(§3) For counterscreening, fresh solutions of all positive compounds were prepared in DMSO. […] IC50 values were calculated by nonlinear regression of at least five data points using SigmaPlot, version 9.01 (Systat Software Inc., Chicago, IL). […] Similarly, half-maximal effective concentration (EC50) values for agonists of the AhR and ER bioassays were determined, and the results are presented as the mean of triplicate analysis. […]

CYP450 2C9 [4] = biological target: T1, CYP450 2C9; assay: biochemical
estrogen receptor (ER) = biological target: T4, estrogen receptor (ER) (Homo sapiens, UniProt P03372); assay: ER CALUX luciferase reporter bioassay (BG1Luc4E2/ER-α-positive cells); format: cell-based; details: for EC50: agonist, ER CALUX luciferase induction
T4 construct: endogenous in cells; host or cells: BG1Luc4E2 (human ovarian cell line per title of Rogers and Denison 2000)
T4 sequence (P03372 whole entry): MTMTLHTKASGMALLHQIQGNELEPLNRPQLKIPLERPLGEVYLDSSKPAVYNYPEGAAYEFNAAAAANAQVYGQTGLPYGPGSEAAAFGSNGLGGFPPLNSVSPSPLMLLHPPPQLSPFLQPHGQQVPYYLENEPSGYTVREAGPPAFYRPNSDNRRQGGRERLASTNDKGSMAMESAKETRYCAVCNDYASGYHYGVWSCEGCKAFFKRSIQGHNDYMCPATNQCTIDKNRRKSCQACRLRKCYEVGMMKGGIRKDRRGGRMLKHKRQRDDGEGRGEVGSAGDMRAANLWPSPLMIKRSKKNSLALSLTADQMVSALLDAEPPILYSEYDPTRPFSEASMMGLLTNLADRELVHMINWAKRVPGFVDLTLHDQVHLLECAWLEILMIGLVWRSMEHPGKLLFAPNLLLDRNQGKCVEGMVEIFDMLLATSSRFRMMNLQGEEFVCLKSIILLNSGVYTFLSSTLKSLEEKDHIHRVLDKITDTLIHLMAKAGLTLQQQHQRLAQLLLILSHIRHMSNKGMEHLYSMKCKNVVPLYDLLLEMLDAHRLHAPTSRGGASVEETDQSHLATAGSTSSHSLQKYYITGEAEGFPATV

[5] = biological target: T5, human soluble epoxide hydrolase (sEH) (Homo sapiens, UniProt P34913); assay: human sEH enzyme inhibition assay (CMNPC substrate, fluorescence kinetic); format: biochemical; details: recombinant purified enzyme, CMNPC 5 μM, counterscreen; mean ± SD
T5 construct: made in house; host or cells: baculovirus expression system
T5 sequence (P34913 1-555): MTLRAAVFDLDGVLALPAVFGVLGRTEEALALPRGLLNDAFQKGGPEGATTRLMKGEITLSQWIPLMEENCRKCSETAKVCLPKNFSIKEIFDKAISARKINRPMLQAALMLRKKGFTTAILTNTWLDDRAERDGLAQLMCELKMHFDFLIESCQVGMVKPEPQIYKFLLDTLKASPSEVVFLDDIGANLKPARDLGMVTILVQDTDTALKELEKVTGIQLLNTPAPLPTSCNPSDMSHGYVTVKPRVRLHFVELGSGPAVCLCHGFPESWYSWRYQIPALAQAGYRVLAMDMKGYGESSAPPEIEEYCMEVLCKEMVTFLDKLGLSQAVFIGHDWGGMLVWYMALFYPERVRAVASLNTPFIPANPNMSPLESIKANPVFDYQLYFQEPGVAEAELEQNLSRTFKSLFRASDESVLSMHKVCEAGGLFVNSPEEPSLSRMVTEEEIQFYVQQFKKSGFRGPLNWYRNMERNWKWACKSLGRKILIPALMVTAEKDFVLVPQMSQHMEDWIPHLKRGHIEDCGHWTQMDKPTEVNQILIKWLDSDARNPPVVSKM
Description: as §1, §2, §3

[6] = biological target: T6, human carboxylesterase CES1 (Homo sapiens, UniProt P23141); assay: biochemical
T6 construct: made in house; host or cells: baculovirus-insect cells
T6 sequence (P23141 18-567): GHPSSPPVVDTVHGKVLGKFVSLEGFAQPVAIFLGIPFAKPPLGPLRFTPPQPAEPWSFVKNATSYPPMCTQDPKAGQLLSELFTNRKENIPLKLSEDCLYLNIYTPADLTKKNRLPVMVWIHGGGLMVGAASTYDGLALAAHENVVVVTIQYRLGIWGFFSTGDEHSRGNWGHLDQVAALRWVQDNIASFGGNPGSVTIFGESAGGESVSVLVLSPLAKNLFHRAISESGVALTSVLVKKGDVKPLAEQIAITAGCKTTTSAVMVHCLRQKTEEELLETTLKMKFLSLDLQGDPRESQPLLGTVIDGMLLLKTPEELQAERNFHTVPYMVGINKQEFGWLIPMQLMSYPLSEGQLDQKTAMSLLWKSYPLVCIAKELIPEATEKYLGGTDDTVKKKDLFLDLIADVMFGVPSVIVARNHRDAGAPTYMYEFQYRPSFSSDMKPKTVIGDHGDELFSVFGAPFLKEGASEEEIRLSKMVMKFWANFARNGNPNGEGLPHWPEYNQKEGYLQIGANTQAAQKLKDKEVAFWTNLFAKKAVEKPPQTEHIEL

T1 sequence (P11712 whole entry): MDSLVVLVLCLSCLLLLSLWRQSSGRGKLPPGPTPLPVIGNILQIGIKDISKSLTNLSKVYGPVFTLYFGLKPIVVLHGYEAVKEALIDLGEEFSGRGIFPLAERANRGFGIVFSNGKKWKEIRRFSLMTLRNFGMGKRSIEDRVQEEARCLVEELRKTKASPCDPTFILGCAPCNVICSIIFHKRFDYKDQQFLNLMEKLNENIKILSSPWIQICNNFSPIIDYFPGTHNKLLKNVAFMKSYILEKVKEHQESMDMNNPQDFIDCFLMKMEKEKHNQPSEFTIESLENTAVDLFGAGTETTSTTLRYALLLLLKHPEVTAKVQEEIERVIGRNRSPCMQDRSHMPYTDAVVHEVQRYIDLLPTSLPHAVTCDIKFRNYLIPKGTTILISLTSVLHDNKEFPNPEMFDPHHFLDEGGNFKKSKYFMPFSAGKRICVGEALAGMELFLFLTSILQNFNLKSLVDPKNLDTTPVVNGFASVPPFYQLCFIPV

## C/C=C/C(=O)Oc1c(C(C)CCCCCC)cc([N+](=O)[O-])cc1[N+](=O)[O-] (stereo not drawn) [2-Methylheptyl-4,6-dinitrophenyl crotonate]
CYP450 2C9 [1]
  IC50: 120 ± 1 nM

## Clc1ccc(-c2nc3ccccc3s2)cc1 [CPB, 2-(4-chlorophenyl)-benzothiazole]
[2]
  EC50: 11400 nM

## CCOP(=S)(OCC)SCSc1ccc(Cl)cc1 [Carbophenothion, carbophenothion]
[3]
  IC50: 110 ± 15 nM

## CCOP(=S)(OCC)Oc1nc(Cl)c(Cl)cc1Cl [Chlorpyrifos, chlorpyrifos]
CYP450 2C9 [4]
  IC50: 3200 nM

## O=C1C(Cl)=C(Cl)C(=O)c2ccccc21 [Dichlone, dichlone]
[2]
  EC50: > 10000 nM

## ClC1=C(Cl)C2(Cl)C3C4CC(C5OC45)C3C1(Cl)C2(Cl)Cl (stereo not drawn) [Endrin]
Estrogen receptor (ER)
  EC50: 13000 nM

## CCOP(=S)(OCC)Oc1ccc([N+](=O)[O-])cc1 [Parathion, parathion]
[3]
  IC50: 4.9 ± 0.4 nM

## CC1CCCCC1NC(=O)Nc1ccccc1 (stereo not drawn) [Siduron, siduron]
[5]
  IC50: 33 ± 3 nM

## O=C(Nc1ccc(Cl)cc1)Nc1ccc(Cl)c(Cl)c1 [TCC, trichlorocarbanilide]
[5]
  IC50: 13 ± 1 nM

## O=P(Oc1ccccc1)(Oc1ccccc1)Oc1ccccc1 [TPP, triphenyl phosphate]
[6]
  IC50: 43 ± 3 nM

## Oc1cc(Cl)ccc1Oc1ccc(Cl)cc1Cl [Triclosan, triclosan]
[6]
  IC50: 210 ± 20 nM
  Ki: 105 ± 5 nM

## ClC(Cl)=C(c1ccc(Cl)cc1)c1ccccc1Cl [o,p-DDE, dichlorodiphenyldichloroethylene]
Estrogen receptor (ER)
  EC50: 1200 nM
Estrogen receptor (ER); relative to E2
  EC50 for ER induction, fold less potent than E2: approximately 10^5 fold

## Pyrethrum
CYP450 2C9 [1]
  IC50: 2300 nM

From publication PMC2799460 (Environmental Health Perspectives, 2009)
